The data set can be described thus: particle size distribution (PSD) of crystals within the medication. It counts as physicochemical. To be noted: first embodiment: dry powder filling technology.

`OCc1ccc(-c2nn(Cc3ccccc3)c3ccccc23)o1` [YC-1 compound]: the “10% of the crystals having a particle size (D10) of less than” value was “less than 0.648 μm”, the “50% of the crystals having a particle size (D50) of less than” value is “less than 14.061 μm” and the “90% of the crystals having a particle size (D90) of less than” value is listed as “less than 215.136 μm”.
Turning to `CC1(C)O[C@@H]2C[C@H]3[C@@H]4CCC5=CC(=O)C=C[C@]5(C)[C@@]4(F)[C@@H](O)C[C@]3(C)[C@]2(C(=O)CO)O1` [triamcinolone acetonide], the “10% of the crystals having a particle size (D10) of less than” value is listed as “less than 4.444 μm” and the “50% of the crystals having a particle size (D50) of less than” value is listed as “less than 11.189 μm”. Further, the “90% of the crystals having a particle size (D90) of less than” value (unit not given) was “less than 30.504”.

Source of the values: patent US20240216281A1, “MANUFACTURING METHOD OF MEDICATION” (YUNG SHIN PHARM. IND. CO., LTD., priority 2022, published 2024).
